# Several values for one entry are separate records, joined by “and”; a condition that tells them apart may be missing. Equal entries are not always repeated. Entries after “also recorded” stand apart in the source; their conditions may differ. Marks after values point to notes of the source that are not given here.
# Tests used:
# [1] = test system: tdTomato expressing T. cruzi (CL strain); assay: Rapid in vivo assay: footpad infection, single oral dose, fluorescence imaging 2 and 4 dpi (proliferation index);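 on Parasite proliferation index of footpads infected with tdTomato-expressing T. cruzi: single oral dose of 50 mg/kg given at 2 dpi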; set-up: species or system C57BL/6 mice; conditions: for Fluorescence intensity of the feet of mice infected with tdTomato-expressing T. cruzi: individual feet
# Method: Fluorescent intensity of the feet was measured at 2 dpi before compound administration and at 4 dpi in the Maestro in vivo imaging system equipped with the software Maestro 2.1.0 (CRi) as previously described. The proliferation index was estimated as PI=[(T4d – T2d)/(mUnt4d-mUnt2d)]*100; where T4d and T2d are the fluorescence intensity of the feet of the treated animals at days 4 and 2 post-infection respectively; mUnt4d and mUnt2d are the average fluorescence intensity of the feet of the untreated animals at 4 and 2 dpi respectively.
# [2] = test system: Luciferase-expressing T. cruzi (Brazil strain); assay: In vivo killing time assay (footpad bioluminescence); set-up: species or system C57BL/6 mice; conditions: for Bioluminiscence signal of the feet of mice infected with Luciferase expresssing T. cruzi: individual feet
# Method: C57BL/6 mice were infected with 2.5x10^5 Luciferase-expressing T. cruzi (Brazil strain) in the foot pads, and two days later one oral dose of AN14353 (25 mg/kg) was administered. The bioluminescent signal in the feet after i.p. injection of D-luciferin (PerkinElmer; 250mg/kg) was measured in a Lumina II IVIS imager (PerkinElmer).
# [3] = test system: T. cruzi CL strain in Vero cells; assay: RNA-seq: parasite mRNA relative to host cell (Vero) mRNA; assay type: cell-based, Trypanosoma cruzi
# Method: The drug concentration used for treatment was set at 5 times the IC50. Samples were collected at several time points for RNA extraction as previously described. rRNA-depleted RNA library construction and RNA sequencing using Illumina Nextseq 75PE was carried out by Georgia Genomics and Bioinformatics Core (GGBC, University of Georgia, Georgia). […] The mapping rate was quantified by HTseq v0.6.1 [51].
# [4] = test system: metallocarboxypeptidase 2 disrupted T. cruzi intracellular amastigote; assay: Intracellular amastigote assay with metallocarboxypeptidase 2 (TcCLB.504045.60) disrupted T. cruzi; assay type: cell-based, Trypanosoma cruzi; conditions: Fig. S1
# From the text: activity of AN14353 on intracellular amastigote (b). Representative microphotographs of assays repeated at least three times are shown. Data are presented as mean values +/- SEM; n= 3 […]
# (1 picture or pasted object on this page, not shown here)
# [5] = test system: TcCBP KO T. cruzi extracellular amastigotes; assay: Extracellular amastigote assay with serine carboxypeptidase knockout T. cruzi; assay type: cell-based, Trypanosoma cruzi; conditions: for % of maximum: Fig 2.c, TcCBP KO
# Method: (§1) The in vitro anti-T. cruzi amastiogote activity assay was performed and optimized based on the protocol described previously. The change in tdTomato fluorescence intensity was determined as a measurement of growth over 72 hours of culture. For assaying drug effects on extracellular amastigotes, trypomastigotes were collected from infected Vero cell cultures and converted in acidic media as previously described. Amastigotes (50,000/well) were incubated with 2-fold serial dilutions of compounds for 48 hours. The ATP production was used as an indication of growth in this case, and was measured by ATPlite Luminescence ATP Detection Assay System (PerkinElmer). Both fluorescence and luminescence were read using a BioTek Synergy Hybrid Multi-Mode reader equipped with the software Gene5 v 2.0 (BioTek). The dose-response curve was generated by […] analysis with GraphPad Prism v9.4.0 (GraphPad Software).
# (§2) The CBPs knockout was produced using ribonucleoprotein (RNP) complexes as previously described. Briefly, Brazil tdTomato strain epimastigotes were electroporated with RNP complexes containing SaCas9 and an sgRNA targeting CBP gene TcBrA4_0048170, plus a repair template containing stop codons in all three reading frames and the M13 sequence for use as a PCR anchor. The sgRNA targeted the ‘[…]” sequence. After 2 days of recovery, single-cell clones were derived by depositing epimastigotes into a 96-well plate at a density of 0.5 cell/well by using a MoFlo Astrios EQ cell sorter (Beckman Coulter). DNA isolation was performed for clones, and primer pair of 5’-[…]-3’ and 5’- […] -3’ was used for amplifying the wild type allele, while primer pair of M13-F: 5’- […] -3’ and 5’- […] -3’ was used for amplifying the mutant allele.
# [6] = NHP necropsy histology (lesions that could be consistent with Chagas); assay type: in vivo, rhesus macaques (Macaca mulatta); set-up: key to Skel mm, lesion grade / Small Int, lesion grade / Large Int, lesion grade / Heart, lesion grade: 0 (unlikely Chagas-related pathology); 5 (likely Chagas-related pathology); conditions: individual treated macaques T1-T9 at necropsy
# Method: (§3) Under light-anesthesia/sedation, peripheral blood samples were collected from each animal prior to treatment and at 7 time points following. Blood analysis (CBC and serum chemistry assays) and physical exams to evaluate the health of the study animals were performed on each animal prior to the beginning of the study and also at three time points during the treatment protocol (see Supplementary data).
# [7] = test system: TcCBP KO T. cruzi intracellular amastigotes; assay: microbe, parasite or virus in culture; assay type: cell-based; conditions: Trypanosoma cruzi, read-out: TcCBP KO IC50
# Method: as §1, §2
# [8] = High dose 7-day toxicology study with exposure
# NHP bodyweights = assay type: in vivo, rhesus macaques (Macaca mulatta); conditions: individual treated macaques
# Method: as §3
smiles,measurement,setting,value
Cc1c(C(=O)NC(C(=O)OCc2ccc(F)c(F)c2)C(C)C)ccc2c1B(O)OC2 (stereo not shown) [AN14353],Fluorescence intensity of the feet of mice infected with tdTomato-expressing T. cruzi,[1]; 0.8 mg/kg,1665.8 and 1203.3 and 1103.9 and 2856.3 and 2240.9 and 2906.1 and 796.9 and 2912.6 and 793.9 and 2840.0
same,Fluorescence intensity of the feet of mice infected with tdTomato-expressing T. cruzi,[1]; 3.2 mg/kg,1183.1 and 248.0 and 552.8 and 1244.2 and 574.1 and 807.8 and 439.5 and 1642.2 and 2070.5 and 1949.8
same,Fluorescence intensity of the feet of mice infected with tdTomato-expressing T. cruzi,[1]; 12.5 mg/kg,556.7 and -13.5 and -118.4 and 985.8 and 248.2 and 312.2 and -170.7 and 977.4 and 456.5 and 1102.8
same,Fluorescence intensity of the feet of mice infected with tdTomato-expressing T. cruzi,[1]; 25 mg/kg,916.6 and 1396.9 and 669.0 and 929.6 and 109.0 and 109.7 and 3.9 and 55.6 and 1126.1 and 448.9
same,Fluorescence intensity of the feet of mice infected with tdTomato-expressing T. cruzi,[1]; 40 mg/kg,248.7 and 316.0 and 101.3 and 60.4 and 606.3 and -64.8 and 95.6 and 476.3 and 738.5 and 600.3
same,Parasite proliferation index of footpads infected with tdTomato-expressing T. cruzi,"[1]; Fig. 3a, individual footpads",1.9 and 17.1 and 45.9 and 24.7 and 19.1 and 29.9 and -18.9 and -3.0 and 31.4 and 4.1
same,Bioluminiscence signal of the feet of mice infected with Luciferase expresssing T. cruzi,[2]; dpi 0,38900 and 50000 and 58900 and 53200 and 27400 and 49600
same,Bioluminiscence signal of the feet of mice infected with Luciferase expresssing T. cruzi,[2]; dpi 6,16800 and 26800 and 41700 and 19800 and 27400 and 55100
same,Bioluminiscence signal of the feet of mice infected with Luciferase expresssing T. cruzi,[2]; dpi 12,53200 and 26000 and 25400 and 27200 and 20400 and 32200
same,Bioluminiscence signal of the feet of mice infected with Luciferase expresssing T. cruzi,[2]; dpi 24,28700 and 38600 and 17100 and 17600 and 12200 and 16200
same,Bioluminiscence signal of the feet of mice infected with Luciferase expresssing T. cruzi,[2]; dpi 30,38600 and 26900 and 29300 and 28500 and 15800 and 33500
same,Bioluminiscence signal of the feet of mice infected with Luciferase expresssing T. cruzi,[2]; dpi 48,13500 and 15700 and 12600 and 12800 and 9070 and 11900
same,Bioluminiscence signal of the feet of mice infected with Luciferase expresssing T. cruzi,[2]; dpi 72,90400 and 76200 and 47100 and 14600 and 38700 and 41000
same,in vivo trypanocidal activity (killing time),[2]; single oral dose 25 mg/kg,rapid in vivo trypanocidal activity
same,RNA-seq reads mapped to African green monkey,[3]; 0hpt,60
same,RNA-seq reads mapped to T.cruzi CL Brener,[3]; 0hpt,14
same,RNA-seq reads unmapped,[3]; 0hpt,26
same,RNA-seq reads mapped to African green monkey,[3]; 6hpt,63
same,RNA-seq reads mapped to T.cruzi CL Brener,[3]; 6hpt,5
same,RNA-seq reads unmapped,[3]; 6hpt,32
same,RNA-seq reads mapped to African green monkey,[3]; 12hpt,62
same,RNA-seq reads mapped to T.cruzi CL Brener,[3]; 12hpt,2
same,RNA-seq reads unmapped,[3]; 12hpt,35
same,RNA-seq reads mapped to African green monkey,[3]; 24hpt,77
same,RNA-seq reads mapped to T.cruzi CL Brener,[3]; 24hpt,1
same,RNA-seq reads unmapped,[3]; 24hpt,22
same,parasite mRNA relative to host cell mRNA,"[3]; T. cruzi-infected Vero cells, 30 nM AN14353 or 5 uM benznidazole, from 6 hrs",marked and continuing reduction in parasite mRNA
same,impact of metallocarboxypeptidase 2 disruption on activity,[4],Lack of impact
same,% of maximum,[5]; 0.00,11% and 2% and 8%
same,% of maximum,[5]; 0.30,1% and -4% and 3%
same,% of maximum,[5]; -0.30,1% and 9%
same,% of maximum,[5]; -0.60,14% and 11% and 5%
same,% of maximum,[5]; -0.90,20% and 18% and 16%
same,% of maximum,[5]; -1.20,31% and 40% and 33%
same,% of maximum,[5]; -1.51,54% and 51% and 59%
same,% of maximum,[5]; -1.81,101% and 104% and 95%
same,% of maximum,[5]; -2.11,106% and 104% and 96%
same,% of maximum,[5]; -2.41,101% and 104%
same,% of maximum,[5]; -2.71,100% and 102%
same,IC50,"[5]; Trypanosoma cruzi, read-out: TcCBP KO IC50",0.0444 µM
Cc1c(C(=O)N[C@H](C(=O)OCC2CCOCC2)C(C)C)ccc2c1B(O)OC2 [AN15368],"Heart, lesion grade",[6],1* and 0 and 2* and 3*
same,Histology Comments,[6],"Heart- mutifocal areas of mild epicarditis; also recorded: No overt pathology identified; also recorded: Sk mm- mild focal area of neutrophilic and lymphocytic inflammation Small int- prominent villar tip necrosis/apoptosis, multifocal Lrg Int- focal area of mild lymphohistiocytic inflammation in muscularis; also recorded: Heart- Multifocal areas of mild lymphohistiocytic inflammation/myofiber loss; regional area of mild-moderate myocardial fibrosis; intravascular bacterial or fungal thrombus. Heart lesions are likely related to thromus/infection but Chagas can't be ruled out; also recorded: Sk mm- Multifocal areas of mild lymphohistiocytic inflammation and myofiber loss; Lrg Int- Mild diffsue lymphoplasmactic colitis; focal area of mild lymphohistiocytic inflammation in muscularis; also recorded: Heart - multiple foci of mild lymphoctic inflammation Sk mm-one section has acute myofiber degeneration (ketamine artifact) Small int- prominent villar tip necrosis/apoptosis, multifocal; also recorded: Heart- multifocal areas of mild to moderate myocardial, subepicardial, and perivascular lymphohistiocytic and plasmacytic inflammation; regional area of mild-moderate myocardial fibrosis"
same,"Large Int, lesion grade",[6],0 and 1*
same,"Skel mm, lesion grade",[6],0 and 1* and 2*
same,"Small Int, lesion grade",[6],0
same,IC50,[7],2.5 µM
same,dose proportionality of exposure,[8]; 7-day toxicology studies / rats,good dose proportional exposure
same,NOAEL dose translated by allometric scaling,[8]; humans,19.4 mg/kg
same,NOAEL dose translated by allometric scaling,[8]; monkeys,60.5 mg/kg
same,AUC(0-t),"[8]; rat, in vivo, 120 mg/kg/day, Total plasma exposure (AUC0-24 h), rats, 120 mg/kg/day (NOAEL dose)",30 µg·h/mL
same,AUC,"[8]; rat, in vivo, 600 mg/kg",256 µg·h/mL
same,NOAEL at 7 days,"[8]; rat, in vivo, oral",120 mg/kg
same,microscopic findings,[8]; rats,"observed microscopically in liver (dose dependent), kidney"
same,effects on hematology and clinical chemistry,"[8]; rats, 120 mg/kg/day or lower",none
same,effects on hematology and clinical chemistry,"[8]; rats, 150 mg/kg",modest effects
same,drug accumulation,"[8]; rats, between the first and seventh days of the study",no evidence of drug accumulation
same,bodyweight at end of study (remark),NHP bodyweights,Weighed less at end of study
same,Bodyweights,NHP bodyweights; weighing 2017-09-11/12,6.37 kg and 8.90 kg and 7.40 kg and 5.20 kg and 6.40 kg and 6.70 kg and 7.70 kg and 7.60 kg and 7.10 kg and 6.30 kg and 7.20 kg and 7.30 kg
same,Bodyweights,NHP bodyweights; weighing 2017-10-18/19,7.00 kg and 9.40 kg and 7.50 kg and 5.30 kg and 6.60 kg and 7.10 kg and 8.00 kg and 7.70 kg and 7.20 kg and 6.40 kg
same,Bodyweights,NHP bodyweights; weighing 2017-11-16,7.30 kg and 9.70 kg and 7.70 kg and 5.50 kg and 6.90 kg and 8.30 kg and 7.00 kg and 6.70 kg and 7.90 kg
same,Bodyweights,NHP bodyweights; weighing 2017-12-05/06,7.50 kg and 9.70 kg and 7.80 kg and 5.80 kg and 6.90 kg and 7.10 kg and 8.10 kg and 7.00 kg and 8.40 kg
same,Bodyweights,NHP bodyweights; weighing 2017-12-19/20,7.50 kg and 9.70 kg and 7.60 kg and 5.50 kg and 6.50 kg and 6.70 kg and 8.10 kg and 7.40 kg and 6.60 kg and 7.90 kg and 7.70 kg
same,Bodyweights,NHP bodyweights; weighing 2018-01-08/09,7.60 kg and 9.80 kg and 7.80 kg and 5.40 kg and 6.60 kg and 6.80 kg and 8.20 kg and 6.90 kg and 7.00 kg
same,Bodyweights,NHP bodyweights; weighing 2018-01-22/23,7.60 kg and 9.95 kg and 7.90 kg and 5.60 kg and 6.80 kg and 7.15 kg and 8.25 kg and 7.65 kg and 6.85 kg and 8.10 kg and 8.20 kg
same,Bodyweights,NHP bodyweights; weighing 2018-02-26/27,8.05 kg and 10.20 kg and 7.90 kg and 5.70 kg and 6.95 kg and 7.25 kg and 8.45 kg and 7.80 kg and 7.30 kg and 8.35 kg and 8.25 kg
same,Bodyweights,NHP bodyweights; weighing 2018-03-26/27,8.00 kg and 10.15 kg and 5.75 kg and 7.00 kg and 7.55 kg and 8.65 kg and 7.85 kg and 6.95 kg and 7.50 kg and 8.20 kg and 8.75 kg
same,Bodyweights,NHP bodyweights; weighing 2018-04-09/10/11,7.95 kg and 10.20 kg and 8.10 kg and 5.90 kg and 6.85 kg and 7.15 kg and 8.70 kg

# From article PMC9519446, “Discovery of an Orally Active Benzoxaborole Prodrug Effective in the Treatment of Chagas Disease in Non-human Primates” (Nature microbiology, 2022)
